# Legend:
# Format in all cases: biochemical
# Gox1615 [1] = biological target: T1, Gox1615 (Gluconobacter oxydans, UniProt Q5FQJ0); test: NADPH-dependent α-ketocarbonyl reductase activity assay (rate of decrease of NADPH at 340 nm)
# T1 sequence (Q5FQJ0 1-332): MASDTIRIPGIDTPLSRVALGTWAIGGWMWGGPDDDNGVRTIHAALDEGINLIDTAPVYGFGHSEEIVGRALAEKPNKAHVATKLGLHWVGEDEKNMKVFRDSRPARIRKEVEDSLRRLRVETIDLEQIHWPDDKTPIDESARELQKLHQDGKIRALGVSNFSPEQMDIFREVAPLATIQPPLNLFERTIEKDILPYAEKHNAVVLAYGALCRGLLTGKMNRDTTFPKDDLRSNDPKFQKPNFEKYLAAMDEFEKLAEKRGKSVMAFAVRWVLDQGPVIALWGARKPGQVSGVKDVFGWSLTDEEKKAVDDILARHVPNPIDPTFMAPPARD
# Protocol: (§1) Measurement of enzyme activity: NADPH-dependent α-ketocarbonyl reductases were assayed by a routine method used for NAD(P)-linked enzymes by recording the rate of decrease of NADPH at 340 nm (ε = 6.22 mM^-1 x cm^-1)) with substrates at 30 °C. The reaction mixture (1 ml) for reduction of α-ketocarbonyl substrates contained 10 mM substrate, 40 mM potassium phosphate buffer pH 7.0, 0.025 mM NAD(P)H and the enzyme. Reactions were induced by addition of enzyme or substrate. One unit was defined as the amount of enzyme activity catalyzing the conversion of 1 µmol of pyridine nucleotide per min at 30 °C. NMR Analysis of Biotransformation Products: Biotransformations were extracted with equal volumes of CDCl3. and ^13C NMR spectra were recorded on a Bruker Avance 300 DPX spectrometer operating at 300 MHz for ^1H NMR and at 75 MHz for ^13C NMR, respectively. Spectra were processed using Bruker TonSpin 1.3 for Windows software and calibrated to the residual solvent peak of CDCl3 (δH = 7.26 / δC = 77.0).
# NADPH-dependent α-ketocarbonyl reductases were assayed by a routine method used for NAD(P)-linked enzymes by recording the rate of decrease of NADPH at 340 nm (ε = 6.22 mM^-1.cm^-1) with substrates at 30 °C. The reaction mixture (1 ml) for reduction of α-ketocarbonyl substrates contained 10 mM substrate, 40 mM potassium phosphate buffer pH 7.0, 0.025 mM NADPH, and the enzyme. Reactions were induced by addition of enzyme or substrate. One unit of activity was defined as the amount of enzyme activity catalyzing the conversion of 1 µmol of pyridine nucleotide per min at 30 °C.
# Purified NAD(P)-dependent oxidoreductases were assayed at 30 °C by a routine method used for NAD(P)-linked enzymes by recording the rate of decrease of NAD(P)H at 340 nm (ε = 6.22 mM^-1˙cm^-1) with substrates capable of reduction reactions. The standard reaction mixture (1 ml) for the reduction reactions of substrates contained 10 mM substrate, 40 mM potassium phosphate buffer (K-phosphate buffer) pH 7.0, 0.05 mM NAD(P)H, and the enzyme unless otherwise noted. Reactions were induced by addition of enzyme or substrate. One unit of activity was defined as the amount of enzyme activity catalyzing the conversion of 1 µmol of pyridine nucleotide per min at 30 °C. Measurement of the protein content was performed by the method of Bradford (Bradford M.M., Anal. Biochem. 72:248-254 (1976)). Table 3: Enzymatic activities with α-diketones, α-ketoaldehydes and α-ketoesters
# Gox1615 [2] = biological target: T1, Gox1615; test: Coupled-enzyme biotransformation with cofactor regeneration, product determined by NMR (regio- and stereoselectivity)
# Protocol: as §1
# (§2) Determination of the absolute configuration of the biotransformation product 2-hydroxy-pentan-3-one using chiral NMR shift solvents: Chiral NMR shift reagent (R,R)- and (S,S)-bis-α-methylbenzylamine-para-methyl (BMBA-p-Me) was prepared with small modifications according to the method reported by Kobayashi, Y et al., Tetrahedron Lett. 44: 7489-7491 (2003). In brief, the method of Marshall, J.A. and Mikowski, A. M., Org. Lett. 8:4375-4378 (2006) was used to synthesize 1,3-dibromo-2-methylpropane from 1,3-dihydroxy-2-methylpropane. Diisopropylethylamine (25.5 g), triphenylphosphine (20.1 g) and CBr4 (25.5 g) were sequentially added to a stirring solution of […] in 100 ml CH2Cl2 at 0 °C. The reaction was stirred for 3-4 h at 0 °C and concentrated under reduced pressure to give a green-brown oil. The oil was dissolved in diethyl ether and water (100 ml each) and the aqueous layer was extracted three times with diethyl ether. The organic extracts were combined and washed with water and brine, and dried over MgSO4. The reaction was concentrated under reduced pressure and applied to flash chromatography on silica 60 (230-400 mesh, 100% cyclohexane). Fractions containing the 1,3-dibromo-2-methylpropane product were combined (as judged by Si-TLC [100% cyclohexene]) and concentrated under reduced pressure resulting in a brown-yellow oil. The dibromopropane oil was used for the synthesis of (R,R)- and (S,S)-BMBA-p-Me as described by (Kobayashi, Y. et al., Org. Lett. 4(3):411-414 (2002). The crude oil was distilled by Kugelrohr at 240 °C to give crude BMPA-p-Me (yellow oil). BMBA-p-Me was purified by HPLC using a C18 column (Waters Xterra, 250 x 4.6 mm) at a flow rate of 0.8 ml min^-1 and a 40 min linear gradient of 50-100 % MeOH at ambient temperature. Fractions were concentrated under reduced pressure and BMBA-p-Me was identified by ^1H-NMR (colorless hygroscopic oil).
# (§3) Approximately 7.5 mg of the extracted product 2-hydroxy-pentan-3-one was added to 15 mg (R,R)- or (S,S)-BMBA-p-Me (dissolved in 200-300 µl CDCl3) and analyzed by ^13C NMR with the readout adjusted to 0.001 ppm/point (sw = 239 ppm, td = 512k) (Fiorentino, A. et al., Tetrahedron., 62:8952-8958 (2006)). The absolute configuration was determined based on the sign of ΔδRR-SS (δ(R,R)-BMBA-p-Me - δ(S,S)-BMBA-p-Me) for the α-carbons adjacent to the hydroxymethine unit as formulated in the following model shown in Scheme 3 (valid for saturated secondary alcohols of acyclic and cyclic compounds): [drawing 7]
# (§4) Cofactor regeneration: A prerequisite for the production of α-hydroxycarbonyl compounds is the regeneration of the expensive coenzymes and the stability of the protein catalysts. By coupling two coenzyme-dependent enzyme reactions, NADPH can be continuously regenerated. […]
# Gox0644 = Gox0644 (Gluconobacter oxydans, UniProt Q5FT75); test: as above
# Protocol: as §1, §2, §3, §4
# [3] = NMR with chiral solvent BMBA-p-Me
compound,measurement,setting,value
"CCC(=O)C(C)=O [2,3-pentanedione]",Gox1615 U/mg*,"Gox1615 [1]; Table 3, 10 mM substrate, 40 mM K-phosphate buffer pH 7.0, 0.05 mM NAD(P)H, 30 °C, U/mg = µmol x min^-1 x mg protein^-1",7.0 U/mg
same,Specific Activity (U/mg)*,"Gox1615 [1]; Table 5, cofactor NADPH, U/mg = µmol/mg·min",7.0 U/mg
same,Product (stereoselective reduction),Gox1615 [2]; [3],2S-hydroxy-pentan-3-one
same,Product (regioselective reduction),Gox1615 [2]; determined by NMR analysis,2-hydroxy-pentan-3-one
same,Product (stereoselective reduction),Gox0644; [3],2R-hydroxy-pentan-3-one
same,Product (regioselective reduction),Gox0644; determined by NMR analysis,2-hydroxy-pentan-3-one

# — EP2316926B1, “Enantioselective production of alpha-hydroxy carbonyl compounds” (priority 2009, dated 2011)
